According to patent US9635854B2, “Controlling red rice with mesotrione” (FMC Corporation, priority 2014, dated 2017):
Like-named read-outs stand apart in the source and are kept apart here.

Key:
[1] = tested on: yellow nutsedge; assay: Direct seeded dryland rice test, pre-emergent (FIG. 2); format: in vivo; settings: pre-emergent treatment at 25 g ai/ha
[2] = tested on: large crabgrass; assay: as above; format: in vivo; settings: pre-emergent treatment at 25 g ai/ha
[3] = tested on: broadleaf signalgrass (Urochloa platyphylla); assay: Pre-emergent weed control in direct-seeded flooded rice (Example 2); format: in vivo; settings: 28 Days After Treatment
Excerpt: (§1) Seeds of crops, rice (Taggart and Wells varieties) and weeds, yellow nutsedge (Cyperus esculentus), barnyardgrass (Echinochloa crus-galli), large crabgrass (Digitaria sanguinalis), hemp sesbania (Sesbania herbacea), Benghal dayflower (Commelina benghalensis), red rice (Oryza sativa) and broadleaf signalgrass (Urochloa platyphylla) were planted in two gallon pots containing top soil. Each pot was watered well before the application of mesotrione (Callisto® Herbicide from Syngenta Crop Protection).

[4] = tested on: Benghal dayflower (Commelina benghalensis); assay: as above; format: in vivo; settings: 28 Days After Treatment
Excerpt: as §1

[5] = tested on: large crabgrass (Digitaria sanguinalis); assay: as above; format: in vivo; settings: 28 Days After Treatment
Excerpt: as §1

[6] = tested on: yellow nutsedge (Cyperus esculentus); assay: as above; format: in vivo; settings: for % weed control Nutsedge: pre-emergent, flooded, 28 Days After Treatment
Excerpt: as §1

[7] = tested on: red rice (Oryza sativa); assay: as above; format: in vivo; settings: for % weed control Red Rice: pre-emergent, flooded, 28 Days After Treatment
Excerpt: as §1

[8] = tested on: Rice (Oryza sativa) 'Jupiter'; settings: PRE, direct-seeded dryland rice
Excerpt: (§2) Rice (Oryza sativa) was planted in 6″ by 10″ fiber flats filled with sterile top soil. Five rows were made in each flat and the three rice varieties (′Cybonee, ‘Jupiter’, and ‘Taggart’) were planted in the center 3 rows and a row of red rice (Oryza sativa) was planted on either end of the flat. The flats were watered after planting. After application flats were placed in the greenhouse and lightly watered. […] The flats were moved to a greenhouse and watered and fertilized routinely. Studies were conducted using randomized complete block design with four replications. In both studies, visual percent red rice control and rice injury were recorded at 14, 21, and 28 days after treatment (DAT), using a scale of 0 (no control/injury) to 100 (complete plant death).

[9] = tested on: Rice (Oryza sativa) 'Taggart'; settings: PRE, direct-seeded dryland rice
Excerpt: as §2

[10] = tested on: Rice (Oryza sativa) 'Cybonee'; settings: PRE, direct-seeded dryland rice
Excerpt: as §2

[11] = tested on: red rice (Oryza sativa); assay: Pre-emergent evaluation on dryland rice, red rice control; format: in vivo; settings: for Percent red rice control: PRE, direct-seeded dryland rice
Excerpt: as §2

[12] = pre-emergent treatment at 50 g ai/ha, flooded rice test

CS(=O)(=O)c1ccc(C(=O)C2C(=O)CCCC2=O)c([N+](=O)[O-])c1 [Mesotrione, mesotrione]
yellow nutsedge control (words, FIG. 2) [1]: controlled | large crabgrass control (words, FIG. 2) [2]: controlled | % weed control Signalgrass ([3]; 6 g ai/ha): 23% | % weed control Signalgrass ([3]; 12 g ai/ha): 23% | % weed control Signalgrass ([3]; 25 g ai/ha): 57% | % weed control Signalgrass ([3]; 50 g ai/ha): 90% | % weed control Signalgrass ([3]; 100 g ai/ha): 98% | % weed control Signalgrass ([3]; 200 g ai/ha): 100% | % weed control Dayflower ([4]; 6 g ai/ha): 17% | % weed control Dayflower ([4]; 12 g ai/ha): 63% | % weed control Dayflower ([4]; 25 g ai/ha): 67% | % weed control Dayflower ([4]; 50 g ai/ha): 93% | % weed control Dayflower ([4]; 100 g ai/ha): 83% | % weed control Dayflower ([4]; 200 g ai/ha): 90% | % weed control Crabgrass ([5]; 6 g ai/ha): 70% | % weed control Crabgrass ([5]; 12 g ai/ha): 100% | % weed control Crabgrass ([5]; 25 g ai/ha): 100% | % weed control Crabgrass ([5]; 50 g ai/ha): 100% | % weed control Crabgrass ([5]; 100 g ai/ha): 100% | % weed control Crabgrass ([5]; 200 g ai/ha): 100% | yellow nutsedge control (words, FIG. 1) [6, 12]: controlled | % weed control Nutsedge ([6]; 6 g ai/ha): 38% | % weed control Nutsedge ([6]; 12 g ai/ha): 77% | % weed control Nutsedge ([6]; 25 g ai/ha): 92% | % weed control Nutsedge ([6]; 50 g ai/ha): 97% | % weed control Nutsedge ([6]; 100 g ai/ha): 100% | % weed control Nutsedge ([6]; 200 g ai/ha): 100% | red rice control (words, FIG. 1) [7, 12]: controlled | % weed control Red Rice ([7]; 6 g ai/ha): 23% | % weed control Red Rice ([7]; 12 g ai/ha): 33% | % weed control Red Rice ([7]; 25 g ai/ha): 90% | % weed control Red Rice ([7]; 50 g ai/ha): 100% | % weed control Red Rice ([7]; 100 g ai/ha): 97% | % weed control Red Rice ([7]; 200 g ai/ha): 100% | red rice control ([7]; summary of Table 7 data): controls | Percent rice injury Jupiter ([8]; 14 DAT, 12.5 g ai/ha): 0 E % | Percent rice injury Jupiter ([8]; 14 DAT, 25 g ai/ha): 0 E % | Percent rice injury Jupiter ([8]; 14 DAT, 37.5 g ai/ha): 2 DE % | Percent rice injury Jupiter ([8]; 14 DAT, 50 g ai/ha): 3 DE % | Percent rice injury Jupiter ([8]; 14 DAT, 62.5 g ai/ha): 5 CD % | Percent rice injury Jupiter ([8]; 14 DAT, 75 g ai/ha): 8 BC % | Percent rice injury Jupiter ([8]; 14 DAT, 87.5 g ai/ha): 10 BC % | Percent rice injury Jupiter ([8]; 14 DAT, 100 g ai/ha): 11 B % | Percent rice injury Jupiter ([8]; 21 DAT, 12.5 g ai/ha): 0 E % | Percent rice injury Jupiter ([8]; 21 DAT, 25 g ai/ha): 0 E % | Percent rice injury Jupiter ([8]; 21 DAT, 37.5 g ai/ha): 2 DE % | Percent rice injury Jupiter ([8]; 21 DAT, 50 g ai/ha): 6 CDS % | Percent rice injury Jupiter ([8]; 21 DAT, 62.5 g ai/ha): 7 CD % | Percent rice injury Jupiter ([8]; 21 DAT, 75 g ai/ha): 10 BC % | Percent rice injury Jupiter ([8]; 21 DAT, 87.5 g ai/ha): 11 BC % | Percent rice injury Jupiter ([8]; 21 DAT, 100 g ai/ha): 14 B % | Percent rice injury Jupiter ([8]; 28 DAT, 12.5 g ai/ha): 0 D % | Percent rice injury Jupiter ([8]; 28 DAT, 25 g ai/ha): 0 D % | Percent rice injury Jupiter ([8]; 28 DAT, 37.5 g ai/ha): 1 D % | Percent rice injury Jupiter ([8]; 28 DAT, 50 g ai/ha): 6 CD % | Percent rice injury Jupiter ([8]; 28 DAT, 62.5 g ai/ha): 8 CD % | Percent rice injury Jupiter ([8]; 28 DAT, 75 g ai/ha): 21 BC % | Percent rice injury Jupiter ([8]; 28 DAT, 87.5 g ai/ha): 26 B % | Percent rice injury Jupiter ([8]; 28 DAT, 100 g ai/ha): 56 A % | Percent rice injury Taggart ([9]; 14 DAT, 12.5 g ai/ha): 0 E % | Percent rice injury Taggart ([9]; 14 DAT, 25 g ai/ha): 0 E % | Percent rice injury Taggart ([9]; 14 DAT, 37.5 g ai/ha): 1 E % | Percent rice injury Taggart ([9]; 14 DAT, 50 g ai/ha): 2 DE % | Percent rice injury Taggart ([9]; 14 DAT, 62.5 g ai/ha): 6 C % | Percent rice injury Taggart ([9]; 14 DAT, 75 g ai/ha): 5 CD % | Percent rice injury Taggart ([9]; 14 DAT, 87.5 g ai/ha): 9 BC % | Percent rice injury Taggart ([9]; 14 DAT, 100 g ai/ha): 11 B % | Percent rice injury Taggart ([9]; 21 DAT, 12.5 g ai/ha): 0 C % | Percent rice injury Taggart ([9]; 21 DAT, 25 g ai/ha): 0 C % | Percent rice injury Taggart ([9]; 21 DAT, 37.5 g ai/ha): 1 BC % | Percent rice injury Taggart ([9]; 21 DAT, 50 g ai/ha): 5 BC % | Percent rice injury Taggart ([9]; 21 DAT, 62.5 g ai/ha): 9 BC % | Percent rice injury Taggart ([9]; 21 DAT, 75 g ai/ha): 10 BC % | Percent rice injury Taggart ([9]; 21 DAT, 87.5 g ai/ha): 11 BC % | Percent rice injury Taggart ([9]; 21 DAT, 100 g ai/ha): 13 B % | Percent rice injury Taggart ([9]; 28 DAT, 12.5 g ai/ha): 0 D % | Percent rice injury Taggart ([9]; 28 DAT, 25 g ai/ha): 0 D % | Percent rice injury Taggart ([9]; 28 DAT, 37.5 g ai/ha): 1 D % | Percent rice injury Taggart ([9]; 28 DAT, 50 g ai/ha): 6 CD % | Percent rice injury Taggart ([9]; 28 DAT, 62.5 g ai/ha): 12 BCD % | Percent rice injury Taggart ([9]; 28 DAT, 75 g ai/ha): 23 BC % | Percent rice injury Taggart ([9]; 28 DAT, 87.5 g ai/ha): 29 B % | Percent rice injury Taggart ([9]; 28 DAT, 100 g ai/ha): 50 A % | Percent rice injury Cybonet ([10]; 14 DAT, 12.5 g ai/ha): 6 BCD % | Percent rice injury Cybonet ([10]; 14 DAT, 25 g ai/ha): 1 D % | Percent rice injury Cybonet ([10]; 14 DAT, 37.5 g ai/ha): 1 D % | Percent rice injury Cybonet ([10]; 14 DAT, 50 g ai/ha): 1 D % | Percent rice injury Cybonet ([10]; 14 DAT, 62.5 g ai/ha): 4 D % | Percent rice injury Cybonet ([10]; 14 DAT, 75 g ai/ha): 5 CD % | Percent rice injury Cybonet ([10]; 14 DAT, 87.5 g ai/ha): 11 BC % | Percent rice injury Cybonet ([10]; 14 DAT, 100 g ai/ha): 12 B % | Percent rice injury Cybonet ([10]; 21 DAT, 12.5 g ai/ha): 5 DE % | Percent rice injury Cybonet ([10]; 21 DAT, 25 g ai/ha): 1 E % | Percent rice injury Cybonet ([10]; 21 DAT, 37.5 g ai/ha): 1 E % | Percent rice injury Cybonet ([10]; 21 DAT, 50 g ai/ha): 5 DE % | Percent rice injury Cybonet ([10]; 21 DAT, 62.5 g ai/ha): 5 DE % | Percent rice injury Cybonet ([10]; 21 DAT, 75 g ai/ha): 8 BCD % | Percent rice injury Cybonet ([10]; 21 DAT, 87.5 g ai/ha): 12 BC % | Percent rice injury Cybonet ([10]; 21 DAT, 100 g ai/ha): 13 B % | Percent rice injury Cybonet ([10]; 28 DAT, 12.5 g ai/ha): 5 DE % | Percent rice injury Cybonet ([10]; 28 DAT, 25 g ai/ha): 1 E % | Percent rice injury Cybonet ([10]; 28 DAT, 37.5 g ai/ha): 1 E % | Percent rice injury Cybonet ([10]; 28 DAT, 50 g ai/ha): 6 DE % | Percent rice injury Cybonet ([10]; 28 DAT, 62.5 g ai/ha): 9 DE % | Percent rice injury Cybonet ([10]; 28 DAT, 75 g ai/ha): 15 CD % | Percent rice injury Cybonet ([10]; 28 DAT, 87.5 g ai/ha): 25 BC % | Percent rice injury Cybonet ([10]; 28 DAT, 100 g ai/ha): 33 AB % | Percent red rice control ([11]; 14 DAT, 12.5 g ai/ha): 33 D % | Percent red rice control ([11]; 14 DAT, 25 g ai/ha): 70 B % | Percent red rice control ([11]; 14 DAT, 37.5 g ai/ha): 74 B % | Percent red rice control ([11]; 14 DAT, 50 g ai/ha): 79 A % | Percent red rice control ([11]; 14 DAT, 62.5 g ai/ha): 80 A % | Percent red rice control ([11]; 14 DAT, 75 g ai/ha): 80 A % | Percent red rice control ([11]; 14 DAT, 87.5 g ai/ha): 80 A % | Percent red rice control ([11]; 14 DAT, 100 g ai/ha): 80 A % | Percent red rice control ([11]; 21 DAT, 12.5 g ai/ha): 60 C % | Percent red rice control ([11]; 21 DAT, 25 g ai/ha): 81 B % | Percent red rice control ([11]; 21 DAT, 37.5 g ai/ha): 84 AB % | Percent red rice control ([11]; 21 DAT, 50 g ai/ha): 86 AB % | Percent red rice control ([11]; 21 DAT, 62.5 g ai/ha): 89 AB % | Percent red rice control ([11]; 21 DAT, 75 g ai/ha): 90 A % | Percent red rice control ([11]; 21 DAT, 87.5 g ai/ha): 90 A % | Percent red rice control ([11]; 21 DAT, 100 g ai/ha): 90 A % | Percent red rice control ([11]; 28 DAT, 12.5 g ai/ha): 62 B % | Percent red rice control ([11]; 28 DAT, 25 g ai/ha): 89 A % | Percent red rice control ([11]; 28 DAT, 37.5 g ai/ha): 88 A % | Percent red rice control ([11]; 28 DAT, 50 g ai/ha): 91 A % | Percent red rice control ([11]; 28 DAT, 62.5 g ai/ha): 92 A % | Percent red rice control ([11]; 28 DAT, 75 g ai/ha): 92 A % | Percent red rice control ([11]; 28 DAT, 87.5 g ai/ha): 95 A % | Percent red rice control ([11]; 28 DAT, 100 g ai/ha): 93 A % | red rice control (words, FIG. 3) ([11]; pre-emergent treatment at 25 g ai/ha, direct seeded dryland rice test): controlled
